According to US20230181662A1, “USES OF ANTRODIA CINNAMOMEA EXTRACT IN MANUFACTURING PRODUCTS FOR REDUCING EXPRESSION AND TREATING ASSOCIATED DISEASES OF ANGIOTENSIN CONVERTING ENZYME 2” (priority 2020, published 2023):
“Also recorded” adds a separate entry of the source.

target: ACE-2 (Homo sapiens, UniProt Q9BYF1); experiment: ACE-2 enzyme activity assay (MCA based peptide substrate, fluorescence); type: biochemical; settings: 20 μg/mL each compound
Sequence (Q9BYF1 18-805, species assumed): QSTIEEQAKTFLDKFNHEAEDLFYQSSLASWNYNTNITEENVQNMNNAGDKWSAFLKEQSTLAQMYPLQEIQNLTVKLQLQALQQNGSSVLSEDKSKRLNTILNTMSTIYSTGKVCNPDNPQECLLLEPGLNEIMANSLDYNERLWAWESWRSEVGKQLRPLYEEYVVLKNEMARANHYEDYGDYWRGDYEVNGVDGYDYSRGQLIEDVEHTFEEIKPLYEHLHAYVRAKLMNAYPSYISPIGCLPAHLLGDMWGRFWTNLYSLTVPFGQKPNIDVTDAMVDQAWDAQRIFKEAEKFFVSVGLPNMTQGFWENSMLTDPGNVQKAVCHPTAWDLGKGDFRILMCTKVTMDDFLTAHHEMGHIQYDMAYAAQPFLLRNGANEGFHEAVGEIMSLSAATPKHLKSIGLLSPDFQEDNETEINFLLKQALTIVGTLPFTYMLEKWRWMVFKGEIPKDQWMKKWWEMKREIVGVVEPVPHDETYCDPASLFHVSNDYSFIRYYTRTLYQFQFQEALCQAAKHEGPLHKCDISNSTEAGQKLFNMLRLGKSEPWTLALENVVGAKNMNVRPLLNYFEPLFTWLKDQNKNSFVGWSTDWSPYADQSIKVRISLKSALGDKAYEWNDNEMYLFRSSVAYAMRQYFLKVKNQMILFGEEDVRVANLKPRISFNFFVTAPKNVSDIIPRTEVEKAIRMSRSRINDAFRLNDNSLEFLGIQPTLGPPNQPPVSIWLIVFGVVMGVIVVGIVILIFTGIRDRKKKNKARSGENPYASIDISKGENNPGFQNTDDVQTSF

Molecule | inhibition of ACE-2 enzyme activity
C=C(CC[C@@H](C(=O)O)[C@H]1C[C@H](O)[C@@]2(C)C3=CC[C@H]4C(C)(C)[C@@H](O)CC[C@]4(C)C3=CC[C@]12C)C(C)C [DSA, dehydrosulphurenic acid] | more than 30%

same assay, conditions: 20 μg/mL each ingredient

Molecule | inhibition ability on ACE-2 enzymatic activity
C=C(CC[C@@H](C)[C@H]1CC[C@H]2C3=C(C(=O)C[C@]12C)[C@@]1(C)CCC(=O)[C@@H](C)[C@@H]1CC3)C(C)C(=O)O (stereo partly shown) [Antcin A] | stronger inhibition activity
C=C(CCC(C)C1CCC2C3=C(C(=O)C(O)C21C)C1(C)CCC(O)C(C)C1CC3=O)C(C)C(=O)O (stereo not shown) [Antcin H] | had inhibition ability
C=C(CC[C@@H](C(=O)O)[C@H]1CC[C@@]2(C)C3=CC[C@H]4C(C)(C)[C@@H](O)CC[C@]4(C)C3=CC[C@]12C)C(C)C [DEA, dehydroeburicoic acid] | had inhibition ability; also recorded: have ability of inhibition on ACE-2
C=C(CC[C@@H](C(=O)O)[C@H]1C[C@H](O)[C@@]2(C)C3=CC[C@H]4C(C)(C)[C@@H](O)CC[C@]4(C)C3=CC[C@]12C)C(C)C [DSA, dehydrosulphurenic acid] | stronger inhibition activity; also recorded: have ability of inhibition on ACE-2
Antcin C | had inhibition ability
Antcin K | stronger inhibition activity; also recorded: have ability of inhibition on ACE-2
